Reference: PubChem BioAssay (NCI)
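Assay format: 96-well plates, 48-hour exposure. Here, GI50 denotes the concentration required for 50% inhibition of growth. TGI marks complete inhibition of growth.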

Key:
Assay in all cases: DTP human tumour cell line panel, 48 h
HOP-92 NSCLC = test system: HOP-92 NSCLC
TK-10 renal = test system: TK-10 renal
DU-145 prostate = test system: DU-145 prostate
ACHN renal = test system: ACHN renal
CAKI-1 renal = test system: CAKI-1 renal
SN12C renal = test system: SN12C renal
A498 renal = test system: A498 renal
T-47D breast = test system: T-47D breast
HL-60(TB) leukemia = test system: HL-60(TB) leukemia
NCI-H522 lung = test system: NCI-H522 lung

SMILES | TGI (HOP-92 NSCLC) | TGI (TK-10 renal) | TGI (DU-145 prostate) | TGI (ACHN renal) | TGI (CAKI-1 renal) | TGI (SN12C renal) | TGI (A498 renal) | TGI (T-47D breast) | TGI (HL-60(TB) leukemia) | TGI (NCI-H522 lung) | GI50 (HOP-92 NSCLC) | GI50 (TK-10 renal) | GI50 (DU-145 prostate) | GI50 (ACHN renal) | GI50 (CAKI-1 renal) | GI50 (A498 renal)
CC1CN=C(N(C(=O)Nc2ccc(F)c(Cl)c2)c2ccccc2)S1 (centres undefined) | 48.1 µM | 68.4 µM | > 100 µM | 87.9 µM | 67 µM | 49.9 µM | 62.1 µM | > 100 µM |  |  |  |  |  |  |  | 
Cc1c(N2C(=O)C(Cl)C2c2ccc(Cl)cc2)c(=O)n(-c2ccccc2)n1C (centres undefined) | > 100 µM | > 100 µM | > 100 µM | 83.2 µM | > 100 µM | > 100 µM |  | > 100 µM | > 100 µM | > 100 µM |  |  |  |  |  | 
CSc1c(C#N)c(N)n(-c2ccc(C)cc2)c(=O)c1C#N |  | > 100 µM | > 100 µM |  | > 100 µM | > 100 µM | > 100 µM | > 100 µM | > 100 µM | > 100 µM |  |  |  |  |  | 
CC1(C)C2CC(=O)C1(C)C(O)C2Br (centres undefined) | > 100 µM | > 100 µM | > 100 µM | > 100 µM |  | > 100 µM | > 100 µM | > 100 µM | > 100 µM |  |  |  |  |  |  | 
O=C(NCCCN(CCCCN(CCCNC(=O)C(F)(F)F)Cc1ccc2ccccc2c1)Cc1ccc2ccccc2c1)C(F)(F)F | > 100 µM | > 100 µM | > 100 µM | > 100 µM |  | > 100 µM | > 100 µM | > 100 µM |  | > 100 µM |  |  |  |  |  | 
CCN(CC)CCCNC(=O)c1ccc([N+](=O)[O-])cc1O | > 100 µM | > 100 µM |  | > 100 µM | > 100 µM | > 100 µM | > 100 µM |  | > 100 µM | > 100 µM |  |  |  |  |  | 
Cc1cc2c([N+](=O)[O-])cc3c(c2o1)C(=O)C=CC3=O | 3.22 µM | 5.72 µM | > 52.3 µM | 3.77 µM | 2.68 µM | 12.2 µM | 29.5 µM | > 22.1 µM |  | 3.32 µM |  |  |  |  |  | 
O=C(NC(COC(=O)C(Cc1ccccc1)NC(=O)c1ccccc1)Cc1ccccc1)c1ccccc1 (centres undefined) | > 50 µM | > 50 µM |  | > 50 µM |  |  | > 50 µM |  | > 50 µM | > 50 µM |  |  |  |  |  | 
Cc1ccc(OCCn2cc(Nc3ccccc3)c(=O)n(CCOc3ccc(C)cc3)c2=O)cc1 | > 100 µM | > 100 µM | > 100 µM | > 100 µM | > 100 µM | > 100 µM | > 100 µM | > 100 µM |  | > 100 µM |  |  |  |  |  | 
Nc1nc(N)c(N=O)c(Nc2ccc(Br)cc2)n1 | > 100 µM | 70.4 µM |  | 49.3 µM | > 100 µM | > 100 µM | 35.2 µM |  | > 100 µM | > 100 µM |  |  |  |  |  | 
COC(=O)CCc1cc(OC)c2c(c1)[C@H](C(=O)OC)[C@@H](c1ccc(O)c(OC)c1)O2 | > 100 µM | > 100 µM | > 100 µM | > 100 µM |  | > 100 µM | 74.5 µM | > 100 µM | 36 µM | > 100 µM |  |  |  |  |  | 
CNc1ncnc2c1cnn2COCC(O)CO (centres undefined) | > 100 µM | > 100 µM | > 100 µM | > 100 µM | > 100 µM | > 100 µM | > 100 µM | > 100 µM |  | > 100 µM |  |  |  |  |  | 
N=C(N)c1ccc(-c2ccc(-c3cccs3)s2)cc1 | 16 µM | 2.91 µM | 3.14 µM | 3.14 µM | 4.23 µM |  | 3.04 µM |  |  |  | 2.71 µM | 1.4 µM | 1.68 µM | 1.7 µM | 1.89 µM | 0.462 µM
COc1cc2c(cc1OC)[C@H]1CN3CCC[C@H]3C=C1c1ccc(OC)c(O)c1-2 | 0.000382 µM | 0.114 µM | 0.162 µM | 0.0154 µM | 0.000133 µM |  |  | 0.132 µM |  | 0.000856 µM |  |  |  |  |  | 
O=C(CNc1c(Cl)cccc1Cl)NC1C=Cc2ccc(S(=O)(=O)Nc3c(Cl)cccc3Cl)cc2C1=O (centres undefined) | > 100 µM | > 100 µM | > 100 µM | > 100 µM | > 100 µM | > 100 µM |  |  | > 100 µM | > 100 µM |  |  |  |  |  | 
O=C1NCC(NC(=O)C(F)(F)F)c2c(Br)sc(Br)c21 (centres undefined) | > 100 µM | > 100 µM | > 100 µM | > 100 µM | > 100 µM | > 100 µM | > 100 µM | > 100 µM |  | > 100 µM |  |  |  |  |  | 
CCOC(=O)C1(C(=O)OCC)COS(=O)OC1 | 28.6 µM | > 100 µM | > 100 µM | > 100 µM |  | > 100 µM | > 100 µM | 50.8 µM |  | 2.1 µM |  |  |  |  |  | 
O=C1NCCS(=O)(=O)N[C@@H](CC2=CC=CCC2)C(=O)N2CCCC12 (some centres undefined) | > 100 µM | > 100 µM |  | > 100 µM |  | > 100 µM | > 100 µM |  | > 100 µM | > 100 µM |  |  |  |  |  | 
O=C1Sc2ccccc2C(=O)N2CSCC12 (centres undefined) | > 100 µM | > 100 µM |  | > 100 µM |  | > 100 µM |  |  | > 100 µM | > 100 µM |  |  |  |  |  | 
CC(=O)c1cccn1/C=C(\OC(=O)OC(C)(C)C)c1ccc[nH]1 |  | > 100 µM | > 100 µM | > 100 µM | 91.2 µM | > 100 µM | > 100 µM | > 100 µM | 98.1 µM | > 100 µM |  |  |  |  |  | 
NC(CC1=CS(=O)(=O)c2ccc(Cl)cc21)C(=O)O (centres undefined) | > 100 µM | > 100 µM | > 100 µM | > 100 µM | > 100 µM | > 100 µM | > 100 µM | > 100 µM |  | > 100 µM |  |  |  |  |  | 
C=Cc1ccc(C)[n+](C[Si](C)(C)O[Si](C)(C)C[n+]2cc(C=C)ccc2C)c1 | > 100 µM | > 100 µM |  | > 100 µM | > 100 µM | > 100 µM |  |  | > 100 µM | > 100 µM |  |  |  |  |  | 
O=c1[nH]cnc(NC2C=C(CO)C(O)C2O)c1[N+](=O)[O-] (centres undefined) | > 100 µM | > 100 µM |  | > 100 µM | > 100 µM | > 100 µM | > 100 µM |  | > 51.7 µM | > 100 µM |  |  |  |  |  | 
